For orientation: IC50 means the point on the concentration scale where inhibition reaches its midpoint. Broadly, the inhibition is the drop in the measured response relative to a control, in per cent. For orientation: Kd means the free concentration of one partner at which half of the binding sites on the other are occupied at equilibrium, for simple one-to-one binding.

The text below walks through data of US10975068B2, “6-aminopyridin-3-yl thiazoles as modulators of RORγT” (Janssen Pharmaceutica NV, priority 2016, dated 2021).

Assay [1] addresses T1, full-length human RORγt (Homo sapiens (Human), UniProt P51449). Kind of assay: RORγt (full-length human) reporter assay, Conditions B or C. Type of assay: cell-based. Particulars: for IC50: read-out: RORγt (FL) Reporter Assay B or C, IC50. An outline of the steps:
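HEK293T cells transiently co-transfected with GAL4-DBD–full-length human RORγt (nt 142-1635, NM_001001523.1) plus GAL4-firefly and CMV-Renilla luciferase reporters; compounds added 4-6 h post-transfection for 16-20 h in 1.3% FBS, 0.1% DMSO. Firefly signal normalized to DMSO and saturating reference compound, then to Renilla; IC50 from concentration plots.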

For assay [2], the system named is IL-17 production by CD4 T cells. In words: Human Th17 assay. Type of assay: cell-based. The conditions noted are these: read-out: Human Th17 Assay, IC50. From the text:
The human Th17 assay tests the effect of RORγt modulatory compounds on IL-17 production by CD4 T cells under conditions which favor Th17 differentiation. Total CD4^+ T cells were isolated from the peripheral blood mononuclear cells (PBMC) of healthy donors using a CD4^+ T cell isolation kit II, following the manufacturer's instructions (Miltenyi Biotec). Cells were resuspended in a medium of RPMI-1640 supplemented with 10% fetal bovine serum, penicillin, streptomycin, glutamate, and β-mercaptoethanol and were added to 96-well plates at 1.5×10^5 per 100 μL per well. 50 μL of compound at titrated concentrations in DMSO were added into each well at final DMSO concentration at 0.2%. Cells were incubated for 1 hour, then 50 μL of Th17 cell differentiation medium was added to each well. The final concentrations of antibodies and cytokines (R&D Systems) in differentiation medium were: 3×10^6/mL anti-CD3/CD28 beads (prepared using human T cell activation/expansion kit, Miltenyi Biotec), 10 μg/mL anti-IL4, 10 μg/mL anti-IFNγ, 10 ng/mL IL1β, 10 ng/mL IL23, 50 ng/mL IL6, 3 ng/mL TGFβ and 20 U/mL IL2. Cells were cultured at 37° C. and 5% CO2 for 3 days. Supernatants were collected and the accumulated IL-17 in culture was measured by using MULTI-SPOT® Cytokine Plate following manufacture's instruction (Meso Scale Discovery). The plate was read using Sector Imager 6000, and IL-17 concentration was extrapolated from the standard curve. The IC50s were determined by GraphPad.

Assay [3] has as its target T1, full-length human RORγt. In words: RORγt (full-length human) reporter assay, Conditions A. Particulars: for IC50: read-out: RORγt (FL) Reporter Assay A, IC50; for inhibition at 6 µM: read-out: RORγt (FL) Reporter Assay A, % inhibition @ 6 μM; for RORγt (FL) Reporter Assay A, % inhibition (value marked **): marked **: footnote not shown. In kind it is cell-based. An excerpt: RORγt (Full-Length Human) Reporter Assay:
Cells used in this assay were transiently co-transfected with three different plasmids, one expressing the GAL4-DNA binding domain (DBD)-RORγt fusion protein under control of a CMV promoter (NH2-Gal4-DBD:RORC-COOH in pCMV-BD, Stratagene #211342), and two reporter plasmids—the firefly luciferase reporter under control of a GAL4 promoter (pFR-Luc 2×GAL4) and Renilla luciferase reporter under control of CMV promoter (pRL-CMV, Promega # E2261). The full-length coding sequence was used for human RORγt, i.e., nucleotides 142-1635 of human RORγt, transcript variant 2, NCBI Accession: NM_001001523.1 (SEQ ID NO:1). HEK293T cells were plated at 35000 per well in 96-well plate in medium of MEM with 8.6% FBS. After 18-22 hours incubation, the transfection was carried out by using a PEI solution with 170.5 ng total DNA/well (50 ng pCMV-BD-ROR plus 20 ng of pFR-Luc reporter and 0.5 ng of pRL-CMV reporter plus 100 ng Carrier DNA (Clontech #630440) for each well). 4-6 hours after transfection, cells were treated with compounds for overnight in the medium with final concentration of FBS 1.1% and DMSO 0.1%. After overnight (16 to 20 hours) incubation, media were removed and cells were lysed with 20 μL 1× Passive Lysis Buffer (Promega) for 10-15 minutes. Luminescence was measured using a BMG LUMIstar OPTIMA plate reader, after addition of 75 μL/well firefly luciferase buffer, followed by 75 μL/well Renilla luciferase buffer. To calculate the effect of compounds on RORγt activity, firefly values were normalized against values of DMSO only and values of reference compound at saturating concentration, then further normalized against Renilla signals. IC50s were generated by plotting final Renilla normalized data against compound concentration and percent inhibition was calculated against DMSO control.
(Reporter assays use an easily measured gene product as a stand-in for the process of interest.)

In assay [4] the target is human RORγt ligand binding domain (RORγt LBD) (Homo sapiens (Human), UniProt P51449). In words: RORγt ThermoFluor® assay (thermal shift binding). The conditions noted are these: for Kd: read-out: ThermoFluor® Assay, Kd. An outline of the steps: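 His-tagged human RORγt LBD (0.065 mg/mL) with 60 μM 1,8-ANS in 100 mM Hepes pH 7.0, 10 mM NaCl, 2.5 mM GSH, 0.002% Tween-20 was heated at 1 °C/min.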
Background: DSF heats the sample and reads unfolding from a dye or from intrinsic fluorescence.

T1 sequence (P51449 other isoform, or with tags, fused parts or gaps): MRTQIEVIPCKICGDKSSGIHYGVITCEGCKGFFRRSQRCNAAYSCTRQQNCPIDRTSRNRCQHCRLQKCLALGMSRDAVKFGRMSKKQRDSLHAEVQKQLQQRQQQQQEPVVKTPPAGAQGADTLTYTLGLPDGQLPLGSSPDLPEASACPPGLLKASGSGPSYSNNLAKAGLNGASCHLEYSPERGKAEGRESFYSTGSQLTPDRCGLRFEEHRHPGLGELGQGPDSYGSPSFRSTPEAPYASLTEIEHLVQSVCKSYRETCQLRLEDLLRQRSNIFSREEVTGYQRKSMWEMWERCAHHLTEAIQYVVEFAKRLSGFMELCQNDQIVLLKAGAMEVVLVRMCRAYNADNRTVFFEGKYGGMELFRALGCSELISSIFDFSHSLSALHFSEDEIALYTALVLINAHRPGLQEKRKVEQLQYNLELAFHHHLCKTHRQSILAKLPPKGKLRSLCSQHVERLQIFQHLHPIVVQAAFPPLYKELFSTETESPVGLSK
Chain of human RORγt ligand binding domain (RORγt LBD) (P51449 other isoform, or with tags, fused parts or gaps): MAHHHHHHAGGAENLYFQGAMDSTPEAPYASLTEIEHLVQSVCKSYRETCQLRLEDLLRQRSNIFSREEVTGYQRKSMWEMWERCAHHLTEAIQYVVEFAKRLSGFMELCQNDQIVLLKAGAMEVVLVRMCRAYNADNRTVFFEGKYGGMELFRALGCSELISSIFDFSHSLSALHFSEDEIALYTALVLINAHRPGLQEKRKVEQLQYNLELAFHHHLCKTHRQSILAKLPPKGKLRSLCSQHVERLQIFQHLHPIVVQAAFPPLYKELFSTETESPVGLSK

Consider `CC[C@H](Nc1cc(C(F)F)c(-c2sc(C(=O)NCC(C)(C)O)nc2C(=O)N2CCCC[C@@H]2C)cn1)C(F)(F)F` [Example 91, 5-(4-(Difluoromethyl)-6-(((S)-1,1,1-trifluorobutan-2-yl)amino)pyridin-3-yl)-N-(2-hydroxy-2-methylpropyl)-4-((S)-2-methylpiperidine-1-carbonyl)thiazole-2-carboxamide], for which the “RORγt (FL) Reporter Assay B or C, % inhibition (value marked *)” value at full-length human RORγt [1] (Conditions B or C, marked *: footnote not given) is reported as 96* %. For the same compound, the IC50 in assay [2] is 0.019 µM.
Take `C[C@H]1CCCCN1C(=O)c1nc(C(=O)NCC(C)(C)O)sc1-c1cnc(NC2CCCCC2)cc1C1CC1` [Example 76, (S)-5-(6-(Cyclohexylamino)-4-cyclopropylpyridin-3-yl)-N-(2-hydroxy-2-methylpropyl)-4-(2-methylpiperidine-1-carbonyl)thiazole-2-carboxamide]: the IC50 turned out to be 0.0038 µM at full-length human RORγt [1] (Conditions B or C) and 0.02 µM in assay [2]. Besides, on full-length human RORγt [1] (read-out: RORγt (FL) Reporter Assay B or C, % inhibition @ 6 μM, Conditions B or C, @ 6 μM), the inhibition at 6 µM came to 108%.
As to `C[C@H]1CCCCN1C(=O)c1nc(C(=O)NC2CCS(=O)(=O)CC2)sc1-c1cnc(NC2CCCCC2)cc1C1CC1` [Example 75, (S)-5-(6-(Cyclohexylamino)-4-cyclopropylpyridin-3-yl)-N-(1,1-dioxidotetrahydro-2H-thiopyran-4-yl)-4-(2-methylpiperidine-1-carbonyl)thiazole-2-carboxamide], the “RORγt (FL) Reporter Assay B or C, % inhibition (value marked **)” value at full-length human RORγt [1] (Conditions B or C, marked **: footnote not shown) is 108** %. For the same compound, the IC50 at full-length human RORγt [1] (Conditions B or C) came to 0.007 µM; in assay [2], 0.014 µM.
As for `CC(C)Nc1cc(C(F)(F)F)c(-c2sc(C(=O)NCC(C)(C)O)nc2C(=O)N2CCC(F)CC2)cn1` [Example 12, 4-(4-Fluoropiperidine-1-carbonyl)-N-(2-hydroxy-2-methylpropyl)-5-(6-(isopropylamino)-4-(trifluoromethyl)pyridin-3-yl)thiazole-2-carboxamide], the IC50 came out at 0.85 µM at full-length human RORγt [3] (HEK293T cells) and 0.19 µM in assay [2]. Besides, the inhibition at 6 µM on full-length human RORγt [3] (Conditions A) was 92%. The “fold improvement in RORγt Thermofluor® binding assay activity” value in assay [4] (compared to Comparator Example 3) is reported as “over 800 fold”. For the same compound, in assay [4], the Kd was determined as 0.063 µM.
For the compound `CC(C)(O)CNC(=O)c1nc(C(=O)N2CCC(F)CC2)c(-c2cnc(NC3CCCCC3)c(C(F)F)c2)s1` [Example 6, 5-(6-(Cyclohexylamino)-5-(difluoromethyl)pyridin-3-yl)-4-(4-fluoropiperidine-1-carbonyl)-N-(2-hydroxy-2-methylpropyl)thiazole-2-carboxamide], on full-length human RORγt [3] (Conditions A), the IC50 is 0.16 µM and the inhibition at 6 µM is 110%. The Kd in assay [4] is roughly 0.01 µM.
For the compound `CC(C)(O)CNC(=O)c1nc(C(=O)N2CCC(F)CC2)c(-c2cnc(NC3CCCCC3)cc2C2CC2)s1` [Example 64, 5-(6-(Cyclohexylamino)-4-cyclopropylpyridin-3-yl)-4-(4-fluoropiperidine-1-carbonyl)-N-(2-hydroxy-2-methylpropyl)thiazole-2-carboxamide], at full-length human RORγt [3] (Conditions A), the IC50 was 0.063 µM and the inhibition at 6 µM worked out at 96%. In addition, in assay [4], the Kd stood at 0.017 µM. In addition, the IC50 in assay [2] worked out at 0.22 µM.
As for `CC(C)(O)CNC(=O)c1nc(C(=O)N2CCC(F)CC2)c(-c2cnc(NCCC(F)(F)F)cc2C(F)(F)F)s1` [Example 8, 4-(4-Fluoropiperidine-1-carbonyl)-N-(2-hydroxy-2-methylpropyl)-5-(4-(trifluoromethyl)-6-((3,3,3-trifluoropropyl)amino)pyridin-3-yl)thiazole-2-carboxamide], at full-length human RORγt [3] (Conditions A), the IC50 turned out to be 0.34 µM and the inhibition at 6 µM turned out to be 95%. For the same compound, in assay [4], the Kd was 0.12 µM.
As for `C[C@H]1CCCCN1C(=O)c1nc(C(=O)NC2CCS(=O)(=O)CC2)sc1-c1cnc(NC2CCCCC2)cc1C(F)(F)F` [Example 17, (S)-5-(6-(Cyclohexylamino)-4-(trifluoromethyl)pyridin-3-yl)-N-(1,1-dioxidotetrahydro-2H-thiopyran-4-yl)-4-(2-methylpiperidine-1-carbonyl)thiazole-2-carboxamide], at full-length human RORγt [3] (Conditions A), the “RORγt (FL) Reporter Assay A, % inhibition (value marked **)” value is 95** % and the IC50 came to 0.009 µM. The Kd in assay [4] is 0.00015 µM.
With `CC(C)(O)CNC(=O)c1nc(C(=O)N2CCC(F)CC2)c(-c2cnc(NC3CC(F)(F)C3)c(C(F)(F)F)c2)s1` [Example 16, 5-(6-((3,3-Difluorocyclobutyl)amino)-5-(trifluoromethyl)pyridin-3-yl)-4-(4-fluoropiperidine-1-carbonyl)-N-(2-hydroxy-2-methylpropyl)thiazole-2-carboxamide], on full-length human RORγt [3] (Conditions A), the IC50 is 0.47 µM and the inhibition at 6 µM is 105%. Also, the Kd in assay [4] was 0.13 µM.
For the compound `CC(C)(O)CNC(=O)c1nc(C(=O)N2CCC(F)CC2)c(-c2cnc(NC3CCCCC3)cc2C#N)s1` [Example 57, 5-(4-Cyano-6-(cyclohexylamino)pyridin-3-yl)-4-(4-fluoropiperidine-1-carbonyl)-N-(2-hydroxy-2-methylpropyl)thiazole-2-carboxamide], at full-length human RORγt [3] (Conditions A), the IC50 was determined as 0.078 µM and the inhibition at 6 µM amounted to 106%. For the same compound, the dissociation constant Kd in assay [4] amounted to 0.079 µM.
In the case of `Cc1cc(NC2CCCCC2)ncc1-c1sc(C(=O)NCC(C)(C)O)nc1C(=O)N1CCC(F)CC1` [Example 67, 5-(6-(Cyclohexylamino)-4-methylpyridin-3-yl)-4-(4-fluoropiperidine-1-carbonyl)-N-(2-hydroxy-2-methylpropyl)thiazole-2-carboxamide], at full-length human RORγt [3] (Conditions A), the IC50 worked out at 0.4 µM and the inhibition at 6 µM is 98%. For the same compound, in assay [4], the Kd came to 0.052 µM.
As for `Cc1c(-c2sc(C(=O)NCC(C)(C)O)nc2C(=O)N2CCC(F)CC2)cnc(NC2CCCCC2)c1C#N` [Example 60, 5-(5-Cyano-6-(cyclohexylamino)-4-methylpyridin-3-yl)-4-(4-fluoropiperidine-1-carbonyl)-N-(2-hydroxy-2-methylpropyl)thiazole-2-carboxamide], at full-length human RORγt [3] (Conditions A), the IC50 was determined as 0.43 µM and the inhibition at 6 µM is 90.3%. For the same compound, the Kd in assay [4] was found to be 0.16 µM.
On to `C[C@H]1CCCCN1C(=O)c1nc(C(=O)NCC(C)(C)O)sc1-c1cnc(NC2CCCCC2)cc1C(F)(F)F` [Example 5, (S)-5-(6-(Cyclohexylamino)-4-(trifluoromethyl)pyridin-3-yl)-N-(2-hydroxy-2-methylpropyl)-4-(2-methylpiperidine-1-carbonyl)thiazole-2-carboxamide], for which, on full-length human RORγt [3] (Conditions A), the IC50 amounted to 0.009 µM and the inhibition at 6 µM came out at 104%. For the same compound, the Kd in assay [4] worked out at 0.00025 µM.
With `CC(C)(O)CNC(=O)c1nc(C(=O)N2CCC(F)CC2)c(-c2cnc(NC3CCCCC3)c(C(F)(F)F)c2)s1` [Example 1, 5-(6-(Cyclohexylamino)-5-(trifluoromethyl)pyridin-3-yl)-4-(4-fluoropiperidine-1-carbonyl)-N-(2-hydroxy-2-methylpropyl)thiazole-2-carboxamide], at full-length human RORγt [3] (Conditions A), the “RORγt (FL) Reporter Assay A, % inhibition (value marked **)” value is listed as 100** % and the IC50 came to 0.079 µM. Also, the Kd in assay [4] was found to be 0.035 µM.
